Test results as given in the NIST ThermoML archive (doi:10.1021/je800348s).
Numbers after ± are expanded uncertainties.

Test: xn = mol fraction of the nth substance listed
Conditions: 101 kPa, Liquid; for mass density: Vibrating tube method

## C1C[C@@H]2[C@H]3CC[C@H](C3)[C@@H]2C1 [exo-tetrahydrodicyclopentadiene] + CCCCCCCC
293.15 K, x2 = 0
  mass density: 935.2 ± 8 kg/m3
  viscosity: 3.064 ± 0.077 mPa·s
293.15 K, x2 = 0.117
  mass density: 906.1 ± 8 kg/m3
  viscosity: 2.353 ± 0.06 mPa·s
293.15 K, x2 = 0.2275
  mass density: 879.1 ± 8 kg/m3
  viscosity: 1.836 ± 0.047 mPa·s
293.15 K, x2 = 0.3384
  mass density: 852.4 ± 8 kg/m3
  viscosity: 1.47 ± 0.037 mPa·s
293.15 K, x2 = 0.4431
  mass density: 827.7 ± 8 kg/m3
  viscosity: 1.216 ± 0.031 mPa·s
293.15 K, x2 = 0.5439
  mass density: 804.2 ± 8 kg/m3
  viscosity: 1.027 ± 0.027 mPa·s
293.15 K, x2 = 0.6417
  mass density: 781.8 ± 8 kg/m3
  viscosity: 0.8793 ± 0.023 mPa·s
293.15 K, x2 = 0.7361
  mass density: 760.4 ± 8 kg/m3
  viscosity: 0.7663 ± 0.02 mPa·s
293.15 K, x2 = 0.8265
  mass density: 740.3 ± 8 kg/m3
  viscosity: 0.6722 ± 0.018 mPa·s
293.15 K, x2 = 0.9143
  mass density: 721.1 ± 8 kg/m3
  viscosity: 0.5988 ± 0.016 mPa·s
298.15 K, x2 = 0
  mass density: 931.4 ± 8 kg/m3
  viscosity: 2.74 ± 0.069 mPa·s
298.15 K, x2 = 0.117
  mass density: 901 ± 8 kg/m3
  viscosity: 2.109 ± 0.053 mPa·s
298.15 K, x2 = 0.2275
  mass density: 874.5 ± 8 kg/m3
  viscosity: 1.665 ± 0.042 mPa·s
298.15 K, x2 = 0.3384
  mass density: 848.1 ± 8 kg/m3
  viscosity: 1.351 ± 0.034 mPa·s
298.15 K, x2 = 0.4431
  mass density: 823.6 ± 8 kg/m3
  viscosity: 1.12 ± 0.029 mPa·s
298.15 K, x2 = 0.5439
  mass density: 800.3 ± 8 kg/m3
  viscosity: 0.9508 ± 0.025 mPa·s
298.15 K, x2 = 0.6417
  mass density: 778 ± 8 kg/m3
  viscosity: 0.8194 ± 0.022 mPa·s
298.15 K, x2 = 0.7361
  mass density: 756.6 ± 8 kg/m3
  viscosity: 0.7198 ± 0.019 mPa·s
298.15 K, x2 = 0.8265
  mass density: 736.5 ± 8 kg/m3
  viscosity: 0.6345 ± 0.017 mPa·s
298.15 K, x2 = 0.9143
  mass density: 717.1 ± 8 kg/m3
  viscosity: 0.5681 ± 0.016 mPa·s
303.15 K, x2 = 0
  mass density: 927.7 ± 8 kg/m3
  viscosity: 2.514 ± 0.063 mPa·s
303.15 K, x2 = 0.117
  mass density: 898.5 ± 8 kg/m3
  viscosity: 1.945 ± 0.049 mPa·s
303.15 K, x2 = 0.2275
  mass density: 871.8 ± 8 kg/m3
  viscosity: 1.553 ± 0.039 mPa·s
303.15 K, x2 = 0.3384
  mass density: 845.4 ± 8 kg/m3
  viscosity: 1.272 ± 0.032 mPa·s
303.15 K, x2 = 0.4431
  mass density: 820.7 ± 8 kg/m3
  viscosity: 1.056 ± 0.027 mPa·s
303.15 K, x2 = 0.5439
  mass density: 797.2 ± 8 kg/m3
  viscosity: 0.8917 ± 0.023 mPa·s
303.15 K, x2 = 0.6417
  mass density: 774.8 ± 8 kg/m3
  viscosity: 0.7691 ± 0.02 mPa·s
303.15 K, x2 = 0.7361
  mass density: 753.2 ± 8 kg/m3
  viscosity: 0.6752 ± 0.018 mPa·s
303.15 K, x2 = 0.8265
  mass density: 732.9 ± 8 kg/m3
  viscosity: 0.5929 ± 0.016 mPa·s
303.15 K, x2 = 0.9143
  mass density: 713.3 ± 8 kg/m3
  viscosity: 0.5302 ± 0.015 mPa·s
313.15 K, x2 = 0
  mass density: 922.2 ± 8 kg/m3
  viscosity: 2.27 ± 0.057 mPa·s
313.15 K, x2 = 0.117
  mass density: 893.5 ± 8 kg/m3
  viscosity: 1.769 ± 0.045 mPa·s
313.15 K, x2 = 0.2275
  mass density: 866.6 ± 8 kg/m3
  viscosity: 1.421 ± 0.036 mPa·s
313.15 K, x2 = 0.3384
  mass density: 839.8 ± 8 kg/m3
  viscosity: 1.166 ± 0.03 mPa·s
313.15 K, x2 = 0.4431
  mass density: 814.9 ± 8 kg/m3
  viscosity: 0.9677 ± 0.025 mPa·s
313.15 K, x2 = 0.5439
  mass density: 791 ± 8 kg/m3
  viscosity: 0.8212 ± 0.022 mPa·s
313.15 K, x2 = 0.6417
  mass density: 768.3 ± 8 kg/m3
  viscosity: 0.7085 ± 0.019 mPa·s
313.15 K, x2 = 0.7361
  mass density: 746.4 ± 8 kg/m3
  viscosity: 0.6197 ± 0.017 mPa·s
313.15 K, x2 = 0.8265
  mass density: 725.6 ± 8 kg/m3
  viscosity: 0.5424 ± 0.015 mPa·s
313.15 K, x2 = 0.9143
  mass density: 705.6 ± 8 kg/m3
  viscosity: 0.4839 ± 0.014 mPa·s

## C1C[C@@H]2[C@H]3CC[C@H](C3)[C@@H]2C1 [exo-tetrahydrodicyclopentadiene] + CCCCCCCCCC
293.15 K, x2 = 0
  mass density: 935.2 ± 8 kg/m3
  viscosity: 3.064 ± 0.077 mPa·s
293.15 K, x2 = 0.095
  mass density: 912.7 ± 8 kg/m3
  viscosity: 2.631 ± 0.066 mPa·s
293.15 K, x2 = 0.1934
  mass density: 890 ± 8 kg/m3
  viscosity: 2.26 ± 0.057 mPa·s
293.15 K, x2 = 0.2908
  mass density: 868.3 ± 8 kg/m3
  viscosity: 1.964 ± 0.05 mPa·s
293.15 K, x2 = 0.3902
  mass density: 846.8 ± 8 kg/m3
  viscosity: 1.717 ± 0.043 mPa·s
293.15 K, x2 = 0.4893
  mass density: 826 ± 8 kg/m3
  viscosity: 1.525 ± 0.039 mPa·s
293.15 K, x2 = 0.6147
  mass density: 800.7 ± 8 kg/m3
  viscosity: 1.348 ± 0.034 mPa·s
293.15 K, x2 = 0.6905
  mass density: 786 ± 8 kg/m3
  viscosity: 1.245 ± 0.032 mPa·s
293.15 K, x2 = 0.7895
  mass density: 767.4 ± 8 kg/m3
  viscosity: 1.13 ± 0.029 mPa·s
293.15 K, x2 = 0.8952
  mass density: 748.2 ± 8 kg/m3
  viscosity: 1.032 ± 0.026 mPa·s
298.15 K, x2 = 0
  mass density: 931.4 ± 8 kg/m3
  viscosity: 2.74 ± 0.069 mPa·s
298.15 K, x2 = 0.095
  mass density: 907.5 ± 8 kg/m3
  viscosity: 2.339 ± 0.059 mPa·s
298.15 K, x2 = 0.1934
  mass density: 885.1 ± 8 kg/m3
  viscosity: 1.996 ± 0.05 mPa·s
298.15 K, x2 = 0.2908
  mass density: 863.7 ± 8 kg/m3
  viscosity: 1.728 ± 0.044 mPa·s
298.15 K, x2 = 0.3902
  mass density: 842.5 ± 8 kg/m3
  viscosity: 1.521 ± 0.038 mPa·s
298.15 K, x2 = 0.4893
  mass density: 822 ± 8 kg/m3
  viscosity: 1.362 ± 0.034 mPa·s
298.15 K, x2 = 0.6147
  mass density: 796.9 ± 8 kg/m3
  viscosity: 1.194 ± 0.03 mPa·s
298.15 K, x2 = 0.6905
  mass density: 782.3 ± 8 kg/m3
  viscosity: 1.102 ± 0.028 mPa·s
298.15 K, x2 = 0.7895
  mass density: 763.7 ± 8 kg/m3
  viscosity: 1.009 ± 0.026 mPa·s
298.15 K, x2 = 0.8952
  mass density: 744.6 ± 8 kg/m3
  viscosity: 0.9181 ± 0.024 mPa·s
303.15 K, x2 = 0
  mass density: 927.7 ± 8 kg/m3
  viscosity: 2.514 ± 0.063 mPa·s
303.15 K, x2 = 0.095
  mass density: 905.4 ± 8 kg/m3
  viscosity: 2.191 ± 0.055 mPa·s
303.15 K, x2 = 0.1934
  mass density: 882.8 ± 8 kg/m3
  viscosity: 1.889 ± 0.047 mPa·s
303.15 K, x2 = 0.2908
  mass density: 861.2 ± 8 kg/m3
  viscosity: 1.638 ± 0.041 mPa·s
303.15 K, x2 = 0.3902
  mass density: 839.8 ± 8 kg/m3
  viscosity: 1.441 ± 0.036 mPa·s
303.15 K, x2 = 0.4893
  mass density: 819 ± 8 kg/m3
  viscosity: 1.287 ± 0.032 mPa·s
303.15 K, x2 = 0.6147
  mass density: 793.7 ± 8 kg/m3
  viscosity: 1.143 ± 0.029 mPa·s
303.15 K, x2 = 0.6905
  mass density: 779 ± 8 kg/m3
  viscosity: 1.058 ± 0.027 mPa·s
303.15 K, x2 = 0.7895
  mass density: 760.3 ± 8 kg/m3
  viscosity: 0.9726 ± 0.025 mPa·s
303.15 K, x2 = 0.8952
  mass density: 740.9 ± 8 kg/m3
  viscosity: 0.8852 ± 0.023 mPa·s
313.15 K, x2 = 0
  mass density: 922.2 ± 8 kg/m3
  viscosity: 2.27 ± 0.057 mPa·s
313.15 K, x2 = 0.095
  mass density: 900.2 ± 8 kg/m3
  viscosity: 2.006 ± 0.051 mPa·s
313.15 K, x2 = 0.1934
  mass density: 877.8 ± 8 kg/m3
  viscosity: 1.741 ± 0.044 mPa·s
313.15 K, x2 = 0.2908
  mass density: 856.3 ± 8 kg/m3
  viscosity: 1.53 ± 0.039 mPa·s
313.15 K, x2 = 0.3902
  mass density: 834.8 ± 8 kg/m3
  viscosity: 1.334 ± 0.034 mPa·s
313.15 K, x2 = 0.4893
  mass density: 814 ± 8 kg/m3
  viscosity: 1.214 ± 0.031 mPa·s
313.15 K, x2 = 0.6147
  mass density: 788.4 ± 8 kg/m3
  viscosity: 1.101 ± 0.028 mPa·s
313.15 K, x2 = 0.6905
  mass density: 773.3 ± 8 kg/m3
  viscosity: 1.032 ± 0.026 mPa·s
313.15 K, x2 = 0.7895
  mass density: 754.2 ± 8 kg/m3
  viscosity: 0.9345 ± 0.024 mPa·s
313.15 K, x2 = 0.8952
  mass density: 734.3 ± 8 kg/m3
  viscosity: 0.8537 ± 0.022 mPa·s
